Source: paper PMC7415810, “A novel nucleolin-binding peptide for Cancer Theranostics” (Theranostics, 2020)

Legend:
in vivo = settings: mouse, iv
Experimental: After 15 min of centrifugation at 5,000 rpm and 4 °C, the plasma was obtained and stored at -80 °C. Plasma peptide concentrations were quantified by ELISA, and pharmacokinetic profiles were analyzed using Phoenix WinNonlin 8.1 (Pharsight Corporation, Mountain View, CA, USA). The area under the plasma concentration-time curve (AUC), distribution half-time (T1/2), maximum plasma concentration (Cmax) and time required to reach maximum plasma concentration (Tmax) values were directly determined from the experimental data. […]
bated at 37 °C for 0, 3, 6, 9, and 24 h. The portion of serum-treated peptide remaining was determined by calcu-lating the height of the respective elution peak in analytical-HPLC and comparing it with control without incuba- […]
Plasma peptide concentrations were quantified by ELISA, and pharmacokinetic profiles were analyzed using Phoenix WinNonlin 8.1 (Pharsight Corporation, Mountain View, CA, USA). The data are presented as the means ± standard deviation.

MDA-MB-231-luc xenograft = test: Tumorigenesis experiment, MDA-MB-231-luc breast cancer xenograft; settings: 16.68 mg/kg (molar equivalent to 2 mg/kg of PTX), tail vein twice a week, n = 5
Experimental: All animal experiments were performed in accordance with IACUC guidelines (GIST-2019-040). For tumorigenesis experiments, anesthetized 6-week-old female NOD-scid Il2rg^-^/^- mice (NPG^TM, VITALSTAR) were inoculated in the mammary fat pad with 1 × 10^6 MDA-MB-231-luc cells in a 100 μl volume (n = 5 for each group). After tumor cell inoculation, when the tumor volume reached approximately 100 mm^3, the mice were randomly divided into the following five groups: (i) control, (ii) low-dose paclitaxel (2 mg/kg), (iii) high-dose paclitaxel (10 mg/kg), (iv) AGM-330 (16.68 mg/kg, molar equivalent to 2 mg/kg of PTX), and (v) AGM-330-PTX (19.05 mg/kg, molar equivalent to 2 mg/kg of PTX). The tumor size was measured twice a week, and the tumor volume was calculated with the following formula: volume (mm^3) = [length (mm)] × [width (mm)]^2 × 0.5. For the bioluminescent imaging experiment, D-luciferin (150 mg/kg; PerkinElmer) was intraperitoneally injected into each mouse, and an IVIS 100 imaging system (Xenogen, Corporation, Alameda, CA) was used for bioluminescent monitoring. Mice were anesthetized with vaporized isofurane (BK Pharm, Ilsan, Korea) and placed in an imaging chamber. After 10 min, each animal was imaged with an exposure time of 1 min. All bioluminescent image data were obtained using Living Image software (version 4.5.2, PerkinElmer). Photons detected from tumors were converted to average radiance values (photon/sec/cm^2/sr), which are quantitative data obtained from a region of […] (ROI) and include the photons emitted by bioluminescent cells from an assigned rectangular area over the whole body of each mouse.
A, Cell proliferation inhibition by AGM-330-PTX treatment was determined for 48 h by the WST assay in multiple breast and colorectal cancer cells and in normal cells. B, Schematic representation of the experimental protocol as described in the materials and methods section. Anesthetized 6‑week-old […] NPG mice were inoculated with a 1:1 mix of Matrigel and 1 × 10^6 MDA-MB-231-luc cells into the mammary fat pad. When the volume of primary tumors reached approximately 100 mm^3, tumor-bearing mice were treated with vehicle (PBS), PTX (2 or 10 mg/kg), AGM-330 (16.68 mg/kg, molar equivalent to 2 mg/kg of PTX), or AGM-330-PTX (19.05 mg/kg, molar equivalent to 2 mg/kg of PTX; n = 5/group). C-E, The therapeutic effect of AGM-330-PTX was evaluated in breast cancer xenograft models. C, Primary tumor volume was measured twice a week until the day of sacrifice. The primary tumor volume was calculated by the formula volume (mm^3) = (length (mm)) × (width (mm))^2 × 0.5. D, On the day of sacrifice, all primary tumors were isolated, and (E) the primary tumor weights were evaluated. F-I, Immunohistochemistry (IHC) sections of representative tumors with Ki-67 (F,H) and TUNEL (G,I) staining. Nuclei were stained with DAPI (blue). Scale bar, 50 µm. Bar graphs represent the mean ± SD, and statistical analyses were performed by one-way ANOVA with Dunnett's multiple comparison. *, **, and *** indicate P < 0.05, P < 0.01, and P < 0.001, respectively.
Following in vitro proliferation analysis on cancer lines, we investigated whether AGM-330-PTX could be a potential therapeutic agent in vivo. We inoculated MDA-MB-231-luc cells into the mammary fat pad of NPG mice. After the […] tumors grew to 100 mm^3, comparative efficacy studies were performed by dividing the animals into five groups (n = 5/group) treated with vehicle (PBS), PTX (2 or 10 mg/kg, respectively), AGM-330 (16.68 mg/kg, molar equivalent to 2 mg/kg of PTX), or AGM-330-PTX (19.05 mg/kg, molar equivalent to 2 mg/kg of PTX) twice a week by tail vein injection (Figure 5B). Tumor growth was monitored by measuring volumes twice a week with a caliber rule over the course of 3 weeks.
Figure S11. A-E, NPG TM mice bearing MDA-MB-231-luc tumors were treated twice a week for 21 days with […]

[1] = system: PI3K/Akt phosphorylation in MDA-MB-231 cells; test: Immunoblot analysis of PI3K/Akt signaling; type: cell-based, human; settings: AGM-330 10, 50, 100 μM, anti-NCL antibody 20, 50 μg/mL
Experimental: Cells were washed with PBS and lysed on ice for 30 min. Protein extracts were mixed with loading buffer, and boiled at 100 °C for 5 min. A total volume of 50 µl of the denatured protein samples were loaded on 10% gels. A voltage of 80 V was applied to samples and then adjusted to 120 V when protein reached the separation gel. Next, protein was transferred to PVDF membranes for 2 h at 4 °C. PVDF membranes were washed with TBS-T 3 times, and blocked with skim milk for 1 h at room temperature. Primary antibodies were used to detect AKT (1:1000; Abcam), p-AKT (1:1000; Abcam), PI3K (1:1000; Abcam), p-PI3K (1:1000; Abcam). Membranes were treated with primary antibody overnight at 4 °C, washed with TBS-T, and incubated with secondary antibody for 1 h at room temperature. Membranes were washed and developed.
Figure S8. A-D, Western blot analysis of PI3K/Akt signaling in MDA-MB-231 cells stimulated by increasing
concentrations of an anti-NCL antibody and AGM-330. After treatment with the anti-NCL antibody (A,B) or
AGM-330 (C,D), the protein levels of p-PI3K, PI3K, p-Akt and Akt were assessed by immunoblot analysis. The

CSCC[C@H](NC(=O)[C@H](C)NC(=O)CNC(=O)[C@H](Cc1c[nH]cn1)NC(=O)[C@@H](N)CCCNC(=N)N)C(=O)N[C@H](C(=O)N[C@@H](Cc1ccc(O)cc1)C(=O)N[C@@H](CC(C)C)C(=O)N[C@@H](CCCCN)C(=O)NCCOCCOCCOCCOCCOCCOCCOCCOCCOCCOCCOCCOCCC(=O)NCCCC[C@H](NC(=O)CCOCCOCCOCCOCCOCCOCCOCCOCCOCCOCCOCCOCCNC(=O)[C@H](CCCCN)NC(=O)[C@H](CC(C)C)NC(=O)[C@H](Cc1ccc(O)cc1)NC(=O)[C@@H](NC(=O)[C@H](CCSC)NC(=O)[C@H](C)NC(=O)CNC(=O)[C@H](Cc1c[nH]cn1)NC(=O)[C@@H](N)CCCNC(=N)N)C(C)C)C(=O)NCCCC[C@H](NC(=O)[C@H](CCCCNC(=O)CCOCCOCCOCCOCCOCCOCCOCCOCCOCCOCCOCCOCCNC(=O)[C@H](CCCCN)NC(=O)[C@H](CC(C)C)NC(=O)[C@H](Cc1ccc(O)cc1)NC(=O)[C@@H](NC(=O)[C@H](CCSC)NC(=O)[C@H](C)NC(=O)CNC(=O)[C@H](Cc1c[nH]cn1)NC(=O)[C@@H](N)CCCNC(=N)N)C(C)C)NC(=O)CCOCCOCCOCCOCCOCCOCCOCCOCCOCCOCCOCCOCCNC(=O)[C@H](CCCCN)NC(=O)[C@H](CC(C)C)NC(=O)[C@H](Cc1ccc(O)cc1)NC(=O)[C@@H](NC(=O)[C@H](CCSC)NC(=O)[C@H](C)NC(=O)CNC(=O)[C@H](Cc1c[nH]cn1)NC(=O)[C@@H](N)CCCNC(=N)N)C(C)C)C(=O)N[C@@H](CS)C(=O)O)C(C)C [AGM-330]
Cmax (in vivo): 1880 ± 670 ng/mL
T1/2 (in vivo): 566 ± 72.6 min
Tmax (in vivo): 10 min
peptide remaining after 24 h in vivo (in vivo): more than 25%
average tumor volume versus vehicle (PBS)-treated mice (MDA-MB-231-luc xenograft): no significant difference
effect on PI3K/Akt phosphorylation [1]: did not suppress
